test system: Myzus persicae; assay: Myzus persicae - spray test; assay type: in vivo; settings: foliar, 144 h, application rate 500 g/ha, after 6 days, Chinese cabbage leaf discs, all stages of green peach aphid, 100% = all aphids killed, read-out: efficacy
Experimental: To produce further test concentrations, the formulation is diluted with emulsifier-containing water.

Row | Compound | pest or weed control at 500 g/ha [%]
1 | CON(C)C(=O)c1cc2cn(-c3cccnc3)nc2cn1 [Compound 11] | 90
2 | CNC(=O)c1cc2cn(-c3cncc(F)c3)nc2cn1 [Compound 19] | 90
3 | CCNC(=O)c1cc2cn(-c3cccnc3)nc2cn1 [Compound 31] | 90
4 | O=C(NC1CC1)c1cc2cn(-c3cccnc3)nc2cn1 [Compound 29] | 90
5 | CN(C)C(=O)c1cc2cn(-c3cncc(F)c3)nc2cn1 [Compound 20] | 90
6 | O=C(NCC(F)F)c1cc2cn(-c3cccnc3)nc2cn1 [Compound 36] | 90
7 | CNC(=O)c1cc2cn(-c3cnccn3)nc2cn1 [Compound 14] | 90
8 | CON(C)C(=O)c1cc2cn(-c3cncc(F)c3)nc2cn1 [Compound 26] | 90

test system: Musca domestica; assay: Musca domestica test; assay type: in vivo; settings: application rate 100 ppm; after 2 days; adult houseflies; 100% = all flies killed
Experimental: • Solvent: dimethyl sulfoxide
To produce a suitable preparation of active compound, 10 mg of active compound are mixed with 0.5 ml of dimethyl sulfoxide, and the concentrate is diluted with water to the desired concentration.
Vessels containing a sponge treated with sugar solution and the active compound formulation of the desired concentration are populated with 10 adult houseflies (Musca domestica).
After 2 days, the kill in % is determined. 100% means that all of the flies have been killed; 0% means that none of the flies have been killed.

Row | Compound | efficacy (kill) [%]
9 | CNC(=O)c1cc2cn(-c3cnccn3)nc2cn1 [Compound 14] | 80
